The target in this test is T1, LXRα (Homo sapiens, UniProt Q13133).
T1 construct: Co-transfection expression plasmids, comprising full-length LXRα (pCMX-h LXRα); expressed in transfected cells; host or cells: CV-1 African green monkey kidney cells, transient transfection with FuGENE6
T1 sequence (Q13133 1-447): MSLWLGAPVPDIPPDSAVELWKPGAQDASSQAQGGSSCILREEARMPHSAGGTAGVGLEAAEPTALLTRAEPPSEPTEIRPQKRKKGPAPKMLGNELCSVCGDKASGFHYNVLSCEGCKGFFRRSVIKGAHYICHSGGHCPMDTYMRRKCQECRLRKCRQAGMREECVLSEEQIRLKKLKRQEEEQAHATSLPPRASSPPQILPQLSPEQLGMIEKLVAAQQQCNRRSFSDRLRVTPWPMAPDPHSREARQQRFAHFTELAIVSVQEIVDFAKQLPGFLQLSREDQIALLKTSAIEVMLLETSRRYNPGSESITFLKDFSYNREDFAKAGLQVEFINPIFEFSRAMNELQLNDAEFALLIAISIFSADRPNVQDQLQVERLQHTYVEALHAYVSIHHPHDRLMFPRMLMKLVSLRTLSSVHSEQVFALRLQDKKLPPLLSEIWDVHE
T1 sequence (P19793 1-462 partner): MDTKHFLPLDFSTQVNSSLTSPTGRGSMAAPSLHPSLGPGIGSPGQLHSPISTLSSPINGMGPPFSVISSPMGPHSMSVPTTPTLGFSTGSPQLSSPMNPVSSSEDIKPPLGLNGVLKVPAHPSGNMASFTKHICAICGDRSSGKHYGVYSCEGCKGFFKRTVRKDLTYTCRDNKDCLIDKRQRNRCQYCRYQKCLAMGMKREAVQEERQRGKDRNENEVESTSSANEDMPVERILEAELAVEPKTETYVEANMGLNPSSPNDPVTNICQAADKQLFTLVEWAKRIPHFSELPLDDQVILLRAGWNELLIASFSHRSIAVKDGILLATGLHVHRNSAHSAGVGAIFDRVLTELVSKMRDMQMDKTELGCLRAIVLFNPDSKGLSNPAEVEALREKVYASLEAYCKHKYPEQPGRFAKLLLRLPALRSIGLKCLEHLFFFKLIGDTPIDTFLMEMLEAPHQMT
Nature of the test: LXR/LXRE co-transfection assay (LXRα). Type of test: cell-based. Conditions: for pEC50: CV-1 cells, LXRE luciferase reporter; for Emax: read-out: LXRα Eff (%). The source says: To measure the ability of compounds to activate or inhibit the transcriptional activity of LXR in a cell based assay, the co-transfection assay was used. It has been shown that LXR functions as a heterodimer with RXR. For the co-transfection assay, expression plasmids for LXRα and LXRβ are introduced separately via transient transfection into mammalian cells along with a luciferase reporter plasmid that contains one copy of a DNA sequence that is bound by LXR-RXR heterodimers (LXRE; Willy, P. et. al. 1995). LXRs heterodimerize with the endogenous RXR. Treatment of transfected cells with an LXR agonist increases the transcriptional activity of LXR, which is measured by an increase in luciferase activity.
Co-transfection expression plasmids, comprising full-length LXRα (pCMX-h LXRα or LXRβ (pCMX-hLXRβ), reporter plasmid (LXREx1-Tk-Luciferase), and control (pCMX-Galactosidase expression vector) (Willey et al. Genes & Development 9 1033-1045 (1995)).
CV-1 cells were prepared 24 hours prior to the experiment by plating them into T-175 flasks or 500 cm^2 dishes in order to achieve 70-80% confluency on the day of the transfection. The number of cells to be transfected was determined by the number of plates to be screened. Each well of a 384 well plate requires ˜8000 cells. DNA Transfection Reagent was prepared by mixing the required plasmid DNAs with a cationic lipid transfection reagent FuGENE6 (Roche) by following the instructions provided with the reagents. Optimal DNA amounts were determined empirically per cell line and size of vessel to be transfected. For each T175 cm^2 flask a total of 20 μg of DNA, 60 μl of Fugene 6 and 1 ml of Optimem was mixed and added. Cells were then incubated at least 5 hours at 37° C. to prepare screening cells.
Assay plates were prepared by dispensing 5 μL, of compound per well of a 384 well plate to achieve final compound concentration of 10 μM and no more than 0.5% DMSO. Media was removed from the screening cells, the cells trypsinized, harvested cells by centrifugation, counted, and plated at a density of approximately 8000 cells per well in the 384 well assay plate prepared above in a volume of about 45 μL. Assay plates containing both compounds and screening cells (50 μL, in total volume) were incubated for 20 hours at 37° C.
After incubation with compounds, media was removed from the cells and luciferase assay reagent (30 μL/well) added. After ˜2 minutes at ambient temperature, the assay plates were read on a luminometer (PE Biosystems Northstar reader with on-board injectors, or equivalent).
The LXR/LXRE co-transfection assay can be used to establish the EC50/IC50 values for potency and percent activity or inhibition for efficacy. Efficacy defines the activity of a compound relative to a high control ((N-(3-((4-fluorophenyl)-(naphthalene-2-sulfonyl)amino)propyl)-2,2-dimethylpropionamide)) or a low control (DMSO/vehicle). The dose response curves are generated from a 10 point curve with concentrations differing by ½ LOG units.
The data from this assay is fitted to the following equation, from which the EC50 value may be solved: Y=Bottom+(Top−Bottom)/(1+10^((logEC50-X)*HillSlope)).
The EC50/IC50 is therefore defined as the concentration at which an agonist or antagonist elicits a response that is half way between the Top (maximum) and Bottom (baseline) values. The EC50/IC50 values represented are the averages of at least 2 and normally 3 independent experiments. The determination of the relative efficacy or % control for an agonist is by comparison to the maximum response achieved by ((N-(3-((4-fluorophenyl)-(naphthalene-2-sulfonyl)-amino)propyl)-2,2-dimethylpropionamide) that is measured individually in each dose response experiment.

[1] abbreviates: efficacy relative to high control N-(3-((4-fluorophenyl)-(naphthalene-2-sulfonyl)amino)propyl)-2,2-dimethylpropionamide.

Each structure is given as a SMILES string. pEC50: −log10 of the molar value. Where two headings read alike, the source gives them in different places.

For `CC(C)(O)c1cn(-c2ccc(-c3cc(F)c(CO)c(S(C)(=O)=O)c3)cc2F)c(Cc2ccccc2F)n1` [Example 16, 2-(1-(3,3′-difluoro-4′-(hydroxymethyl)-5′-(methylsulfonyl)biphenyl-4-yl)-2-(2-fluorobenzyl)-1H-imidazol-4-yl)propan-2-ol], the pEC50 was > 7.00. Besides, the Emax under setting [1] turned out to be 19%.

Regarding `Cc1ccccc1Cc1nc(C(C)(C)O)cn1-c1ccc(-c2cc(F)c(CO)c(S(C)(=O)=O)c2)cc1` [Example 17, 2-(1-(3′-fluoro-4′-(hydroxymethyl)-5′-(methylsulfonyl)biphenyl-4-yl)-2-(2-methylbenzyl)-1H-imidazol-4-yl)propan-2-ol], the pEC50 was 6.00 to 7.00. Moreover, the Emax under setting [1] was 13%.

In the case of `CC(C)(O)c1cn(-c2ccc(-c3cc(F)c(CO)c(S(C)(=O)=O)c3)cc2)c(Cc2c(Cl)cccc2Cl)n1` [Example 18, 2-(2-(2,6-dichlorobenzyl)-1-(3′-fluoro-4′-(hydroxymethyl)-5′-(methylsulfonyl)biphenyl-4-yl)-1H-imidazol-4-yl)propan-2-ol], the pEC50 was > 7.00. The Emax under setting [1] stood at 17%.

Consider `CC(C)(O)c1cn(-c2ccc(-c3cc(F)c(CO)c(S(C)(=O)=O)c3)cc2)c(Cc2cc(F)ccc2Cl)n1` [Example 19, 2-[2-(2-Chloro-5-fluoro-benzyl)-1-(3′-fluoro-4′-hydroxymethyl-5′-methanesulfonyl-biphenyl-4-yl)-1H-imidazol-4-yl]-propan-2-ol], for which the pEC50 is < 6.00.

The compound `CC(C)(O)c1cn(-c2ccc(-c3cc(F)c(CO)c(S(C)(=O)=O)c3)cc2F)c(Cc2ccccc2Cl)n1` [Example 20, 2-[2-(2-Chloro-benzyl)-1-(3,3′-difluoro-4′-hydroxymethyl-5′-methanesulfonyl-biphenyl-4-yl)-1H-imidazol-4-yl]-propan-2-ol] gave a pEC50 of 6.00 to 7.00. The Emax under setting [1] is 15%.

For the compound `CC(c1c(Cl)cccc1Cl)c1nc(C(C)(C)O)cn1-c1ccc(-c2cc(F)c(CO)c(S(C)(=O)=O)c2)cc1F` (centres unmarked) [Example 21, 2-{2-[1-(2,6-dichlorophenyl)ethyl]-1-[3,3′-difluoro-4′-(hydroxymethyl)-5′-(methylsulfonyl)biphenyl-4-yl]-1H-imidazol-4-yl}propan-2-ol], the pEC50 was > 7.00 and the Emax turned out to be 18%.

Broadly, the pEC50 is −log10 of the EC50, conventionally taken in molar units. Read a low pEC50 as a large EC50.

(Values after patent US8618154B2, “LXR modulators” (Bristol-Myers Squibb Company, priority 2009, dated 2013).)
